Laboratory results from ChEMBL document CHEMBL4619813, “Virtual Screening for Ligand Discovery at the σ1 Receptor” (ACS Med Chem Lett, 2020).

How the values were obtained:
[1] = biological target: Sigma non-opioid intracellular receptor 1 (Homo sapiens, UniProt Q99720); experiment: Displacement of [3H](+)-pentazocine from recombinant sigma 1 receptor (unknown origin) expressed in baculovirus infected Sf9 cell membranes after 1.5 hrs by scintillation counting analysis
[2] = biological target: Sigma intracellular receptor 2 (Homo sapiens, UniProt Q5BJF2); experiment: Displacement of [3H](+)-DTG from recombinant sigma 2 receptor (unknown origin) expressed in baculovirus infected Sf9 cell membranes after 1.5 hrs by scintillation counting analysis
Sigma intracellular receptor 2, sequence (Q5BJF2 whole entry): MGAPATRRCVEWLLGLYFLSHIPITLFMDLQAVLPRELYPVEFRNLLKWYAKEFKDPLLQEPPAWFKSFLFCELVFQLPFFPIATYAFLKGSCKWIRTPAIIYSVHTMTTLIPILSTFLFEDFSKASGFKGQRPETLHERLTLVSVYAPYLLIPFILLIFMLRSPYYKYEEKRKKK

[3] = Selectivity ratio of Ki for displacement of [3H](+)-DTG from recombinant sigma 2 receptor (unknown origin) expressed in baculovirus infected Sf9 cell membranes to Ki for displacement of [3H](+)-pentazocine from recombinant sigma 1 receptor (unknown origin) expressed in baculovirus infected Sf9 cell membranes; conditions: Homo sapiens

Sigma non-opioid intracellular receptor 1, sequence (Q99720 whole entry): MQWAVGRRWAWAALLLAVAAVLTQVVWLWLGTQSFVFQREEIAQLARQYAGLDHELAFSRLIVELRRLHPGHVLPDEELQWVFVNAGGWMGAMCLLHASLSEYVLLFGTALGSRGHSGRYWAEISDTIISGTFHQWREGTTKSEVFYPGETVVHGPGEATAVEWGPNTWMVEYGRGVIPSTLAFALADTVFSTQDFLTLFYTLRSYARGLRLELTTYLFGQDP

Compound | Ki [1] [nM] | Kd [2] [nM] | Kd [1] [nM] | Ki [2] [nM] | Ratio Ki [3]
NC(=O)c1cccc(CNC2CCN(c3ccc(F)c(Cl)c3)C2)c1 (stereo not given) | 220 |  |  | 250 | 1.1
Cc1nn(CCO)cc1CN(C)Cc1csc(-c2ccccc2)n1 | 127 |  |  | 2370 | 18.7
FC(F)(F)c1cccc(N2CCC(/N=C/c3ccc(Br)cc3)N2)c1 (stereo not given) |  | > 1000 | > 1000 |  | 
O=C(c1c[nH]c2ccccc12)N1CCC(N2CCc3ccccc3C2)C1 (stereo not given) |  | > 1000 | > 1000 |  | 
O=C(c1ccc(C(F)(F)F)cc1)N1CCN(Cc2ccccc2)CC1 | 915 |  |  |  | 
Cc1nn(-c2ccccc2Cl)c(Cl)c1CNCc1cc(F)cc(F)c1 | 164 |  |  | 985 | 6

Now from value to molecule:

Ki [1] [nM] | Kd [2] [nM] | Kd [1] [nM] | Ki [2] [nM] | Ratio Ki [3] | Compound
191 |  |  |  |  | FC(F)(F)c1cccc(-c2ccc(CNCc3cccnc3)o2)c1
 | > 1000 | > 1000 |  |  | CC(CCc1c[nH]c2ccccc12)NC1CCN(C(=O)C(C)C)CC1 (stereo not given)
18 |  |  | 15 | 0.8 | OC1COCCC1NC1CCN(c2ccc(C(F)(F)F)cn2)CC1 (stereo not given)
 | > 1000 | > 1000 |  |  | NC(Cc1ccccc1)C(=O)N1CCN(c2ccc3nccn3n2)CC1 (stereo not given)
89 |  |  | 2950 | 33.2 | Cc1[nH]c2cc(C(F)(F)F)ccc2c(=O)c1CN(C)Cc1ccccc1
 | > 1000 | > 1000 |  |  | Cc1c(C(=O)NC(CN(C)C)c2ccccc2)cnn1-c1ccc(F)cc1 (stereo not given)
23 |  |  | 949 | 41.3 | Fc1ccc(CN2CCCN(C(=S)Nc3cc(F)cc(F)c3)C2)cc1
